The assay has as its system microbial control in water. As to the kind of experiment: Microbial control in water at slightly alkaline pH, comparison of oxidants. The class given is cell-based. The source says: In some embodiments, microbial control in water at slightly alkaline pH was compared between peracetate oxidant, chlorine bleach, peracetic acid and chlorine dioxide. Alkaline pH is encountered in a variety of applications where microbial control and sanitization is needed, including pulp and paper processing.
In some embodiments, microbial control in water at slightly alkaline pH was compared between peracetate oxidant, chlorine bleach, peracetic acid and chlorine dioxide. Alkaline pH is encountered in a variety of applications where microbial control and sanitization is needed, including water treatment and chill tanks in poultry processing, a type of food processing.
With `[O][Cl+][O-]` [chlorine dioxide], the “performance as antimicrobial disinfectant” value (from here on “performance”) is “performed well”. Consider `CC(=O)OO` [peracetic acid], for which the “performance” value is “lowest performance”. As for `OCl` [chlorine bleach, hypochlorite], the “performance” value is “lowest performance”.

Values taken from patent US20250261660A1, “FORMULATIONS AND METHODS FOR USE IN OXIDATION TREATMENT APPLICATIONS” (priority 2022, published 2025).
